According to US11970497B2, “Tricyclic AKR1C3 dependent KARS inhibitors” (Novartis AG, priority 2019, dated 2024):

Key:
[1] = system: H460 (NRF2 pathway mutant cell line with high AKR1C3 expression); assay: In vitro cell proliferation assay (CellTiter-Glo), H460; type: cell-based; conditions: Homo sapiens, NCI-H460, 72 h; H460 cells, 3 days, CellTiter-Glo, top concentration 10 μM; read-out: H460 Qualified absolute AC50
Outline: (§1)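 Luminescent CellTiter-Glo readout after 3-day compound exposure at 37 °C; 8-point 1:5 series, top 10 μM final. Seeding: 800 cells/well for H460, 2000 cells/well for Hara, RPMI-1640 plus 10% FBS. AC50 and percentage activity derived after normalizing to DMSO (1%) and MG132 (30 μM) controls.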

[2] = system: Hara (NRF2 pathway wild type cell line with low AKR1C3 expression); assay: In vitro cell proliferation assay (CellTiter-Glo), Hara; type: cell-based; conditions: 72 h; Hara cells, 3 days, CellTiter-Glo, top concentration 10 μM; read-out: HARA Qualified absolute AC50
Outline: as §1

Human KARS = molecular target: T1, Human KARS (Homo sapiens, UniProt Q15046); assay: KARS AMP Transcreener FP assay; type: biochemical; conditions: 50 nM human KARS, 20 μM ATP, 50 μM L-Lysine, 1 μM tRNA, 2 h at RT; read-out: Human KARS Transcreener AMP assay Qualified absolute AC50
T1 construct: Human KARS protein (residues 70-584) was expressed and purified; made in house
Text: KARS AMP Transcreener FP Assay to Measure Inhibition of KARS Enzymatic Activity
Lysine-tRNA synthetase (KARS) is an enzyme that catalyzes the reaction of ATP, L-lysine, and tRNA(Lys) to form AMP, diphosphate, and L-lysyl-tRNA(Lys).
The Transceener® AMP/GMP (BellBrook Labs, Madison, WI, USA) is a far red, competitive fluorescence polarization (FP) immunoassay based on the detection of AMP, which is one of the products of aminoacylation of tRNA. In this assay, a fluorescently labeled AMP (AMP Alexa Fluor 633) is used as the tracer that can be recognized by a specific antibody. In the absence of AMP, all the tracer molecules are bound to the antibodies leading to large polarization. The AMP product generated by the enzyme reaction will compete with the tracer for binding to the antibody which leads to a decrease in the polarization. As such, the enzyme activity is inversely proportional to FP values.
Human KARS protein (residues 70-584) was expressed and purified using a similar protocol to what is described in literature (Crystal structure of tetrameric form of human lysyl-tRNA synthetase: Implications for multisynthetase complex formation Guo, M., Ignatov, M., Musier-Forsyth, K., Schimmel, P., Yang, X. L. (2008) Proc. Natl. Acad. Sci. Usa 105: 2331-2336).
The KARS enzyme assay was performed in a final volume of 10 μL per well of Corning Costar 384 well plate, flat bottom, black non-treated plate. The final assay concentration was 20 mM HEPES pH 7.5, 1 mM DTT, 50 nM human KARS, 20 μM ATP, 50 μM L-Lysine, 1 μM tRNA and 8 mM MgCl2. Compounds were serial diluted 1:3 in DMSO in a master plate to generate a 10 concentration points dose response with maximum concentration of 10 mM. 50 nL from compound master plate were spotted in each well of a 384 black plate (Corning 3573), and 5 μL of enzyme mixture containing 100 nM KARS diluted in assay buffer (20 mM HEPES pH 7.5 and 1 mM OTT) were added. The reaction was started by adding 5 μL of the substrate mixture containing 40 μM ATP (final 20 μM ATP), 100 μM L-Lysine (final 50 μM), 2 μM tRNA (final 1 μM), 16 mM MgCl2 (final 8 mM MgCl2) diluted in assay buffer (20 mM HEPES pH 7.5 and 1 mM OTT). The mixtures were mixed and incubated for 2 h at RT before the termination of the reaction.
Transcreener® stop and detection buffers were prepared (1× stop buffer [final: 0.5×], 2 nM Tracer [final: 1 nM] and 5 μg/ml anti-AMP antibody [final: 2.5 μg/ml] in deionized water) and 10 μL of the stop and detection mix were added to the reaction wells, mixed for a minute and centrifuged at 1000 rpm for 10 seconds. The plates were read after incubating at RT for 30-60 min using Infinite® M1000 with the following settings: Excitation wavelength: 635 nm; Emission wavelength: 680 nm. FP values of DMSO controls were used to normalize the data and calculate IC50s of compounds using the Helios Software suite.

T1 sequence (Q15046 70-584): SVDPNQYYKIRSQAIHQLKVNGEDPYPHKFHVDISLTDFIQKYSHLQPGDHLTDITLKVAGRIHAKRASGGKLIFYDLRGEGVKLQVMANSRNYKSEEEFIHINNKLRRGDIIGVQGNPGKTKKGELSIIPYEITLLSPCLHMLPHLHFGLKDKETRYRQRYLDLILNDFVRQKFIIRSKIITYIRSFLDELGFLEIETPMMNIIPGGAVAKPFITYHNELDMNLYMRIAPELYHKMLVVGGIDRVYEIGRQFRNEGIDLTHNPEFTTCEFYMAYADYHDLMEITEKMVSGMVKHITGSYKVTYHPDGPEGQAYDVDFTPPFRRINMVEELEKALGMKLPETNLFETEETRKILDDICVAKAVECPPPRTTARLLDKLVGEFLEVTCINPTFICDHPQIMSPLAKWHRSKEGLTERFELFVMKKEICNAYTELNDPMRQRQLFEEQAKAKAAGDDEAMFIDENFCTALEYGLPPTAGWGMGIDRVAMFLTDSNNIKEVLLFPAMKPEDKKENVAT

Structure (SMILES) | AC50 [1] [nM] | AC50 [2] [nM] | AC50 (Human KARS) [nM]
O=C(NCc1ccc(F)c(CO)c1)N1CCC2(CC1)CC(O)c1cc(F)ccc1N2 (racemic) [Example 159, 6′-fluoro-N-(4-fluoro-3-(hydroxymethyl)benzyl)-4′-hydroxy-3′,4′-dihydro-1′H-spiro[piperidine-4,2′-quinoline]-1-carboxamide] | 53 | 67 | 45.9
NC(=O)c1cc(CNC(=O)N2CCC3(CC2)CC(O)c2cc(F)ccc2N3)ccc1F (racemic) [Example 160, N-(3-carbamoyl-4-fluorobenzyl)-6′-fluoro-4′-hydroxy-3′,4′-dihydro-1′H-spiro[piperidine-4,2′-quinoline]-1-carboxamide] | 0.4 | 1 | 47.2
CN1c2ccc(F)cc2C(O)CC12CCN(C(=O)NCc1ccc(F)c(CC(N)=O)c1)CC2 (racemic) [Example 161, N-(3-(2-amino-2-oxoethyl)-4-fluorobenzyl)-6′-fluoro-4′-hydroxy-1′-methyl-3′,4′-dihydro-1′H-spiro[piperidine-4,2′-quinoline]-1-carboxamide] | 278 | 91 | 71.8
CN1c2ccc(F)cc2C(O)CC12CCN(C(=O)NCc1ccc(F)c(OCCO)c1)CC2 (racemic) [Example 163] | 76 | 11 | 98.4
CS(=O)(=O)Nc1cc(CNC(=O)N2CCC3(CC2)CC(O)c2cc(F)ccc2N3)ccc1F (racemic) [Example 164, 6′-fluoro-N-(4-fluoro-3-(methylsulfonamido)benzyl)-4′-hydroxy-3′,4′-dihydro-1′H-spiro[piperidine-4,2′-quinoline]-1-carboxamide] | 253 | 234 | 106
COCCNc1cc(F)ccc1CNC(=O)N1CCC2(CC1)CC(O)c1cc(F)ccc1N2C (racemic) [Example 166, 6′-fluoro-N-(4-fluoro-2-((2-methoxyethyl)amino)benzyl)-4′-hydroxy-1′-methyl-3′,4′-dihydro-1′H-spiro[piperidine-4,2′-quinoline]-1-carboxamide] | 3 | 22 | 243
CN1c2ccc(F)cc2C(O)CC12CCN(C(=O)NCc1ccc(F)c([C@@H](N)C(F)(F)F)c1)CC2 (mixture of isomers) [Example 167, N-(3-((R)-1-amino-2,2,2-trifluoroethyl)-4-fluorobenzyl)-6′-fluoro-4′-hydroxy-1′-methyl-3′,4′-dihydro-1′H-spiro[piperidine-4,2′-quinoline]-1-carboxamide] | 345 | 100 | 918
CN1c2ccc(F)cc2[C@H](O)CC12CCN(C(=O)NCc1ccc(F)cc1)CC2 (single isomer, unassigned) [Example 151a] | 24 | 20 | 9.1
O=C(NCc1ccc(F)cc1)N1CCC2(CC1)C[C@@H](O)c1cc(F)ccc1N2 (single isomer, unassigned) [Example 152] | 21 | 16 | 9.1
O=C(NCc1ccc(F)cc1)N1CCC2(CC1)C[C@H](O)c1cc(F)ccc1N2 (single isomer, unassigned) [Example 153] | 2260 | 2500 | > 10000
O=C(NCc1ccc(F)cc1O)N1CCC2(CC1)C[C@@H](O)c1cc(F)ccc1N2 (single isomer, unassigned) [Example 154a] | 5 | 5 | 11.7
CN1c2ccc(F)cc2C(=O)CC12CCN(C(=O)NCc1ccc(F)cc1)CC2 [Example 9, 6′-fluoro-N-(4-fluorobenzyl)-1′-methyl-4′-oxo-3′,4′-dihydro-1′H-spiro[piperidine-4,2′-quinoline]-1-carboxamide] | 17 | > 10000 | > 10000
CN1c2ccc(F)cc2C(O)CC12CCN(C(=O)NCc1ccc(F)c(NCCO)c1)CC2 (stereo not drawn) [Example 165, 6′-fluoro-N-(4-fluoro-3-((2-hydroxyethyl)amino)benzyl)-4′-hydroxy-1′-methyl-3′,4′-dihydro-1′H-spiro[piperidine-4,2′-quinoline]-1-carboxamide] | 49 | 23 | 199
